Measurements reported in patent US9238631B2, “Radiolabeled amino acids for diagnostic imaging” (PIRAMAL IMAGING SA, priority 2011, dated 2016).

Experiments:
[1] = tested on: NCI-H460 (human NSCLC) cells; experiment: Cell uptake studies: 30 min uptake in H460 cells; assay type: cell-based; conditions: 0.25 MBq tracer, PBS 0.1% BSA
Experimental: For determination of the biological activity, the F18 labeled derivatives were used as tracers in cell uptake experiments. NCI-H460 (human NSCLC) cells, grown adherently in 48 well plates were used for these uptake-experiments. Approximately 100.000 cells were incubated with 0.25 MBq of the tracers for 30 min in PBS-buffer containing 0.1% BSA. After this time, the cell-bound radioactivity was determined using a γ-counter.

xCT (SLC7A11) = target: T1, xCT (SLC7A11) (Homo sapiens, UniProt Q9UPY5); experiment: Competition profile indicating uptake via xCT (SLC7A11); assay type: cell-based; conditions: co-incubation with 1 mM cold competitors, NCI-H460 cells
T1 construct: NCI-H460 tumor cells were co-incubated with the F-18 labeled tracer and several cold derivatives; endogenous in cells; host or cells: NCI-H460 tumor cells
T1 sequence (Q9UPY5 1-501): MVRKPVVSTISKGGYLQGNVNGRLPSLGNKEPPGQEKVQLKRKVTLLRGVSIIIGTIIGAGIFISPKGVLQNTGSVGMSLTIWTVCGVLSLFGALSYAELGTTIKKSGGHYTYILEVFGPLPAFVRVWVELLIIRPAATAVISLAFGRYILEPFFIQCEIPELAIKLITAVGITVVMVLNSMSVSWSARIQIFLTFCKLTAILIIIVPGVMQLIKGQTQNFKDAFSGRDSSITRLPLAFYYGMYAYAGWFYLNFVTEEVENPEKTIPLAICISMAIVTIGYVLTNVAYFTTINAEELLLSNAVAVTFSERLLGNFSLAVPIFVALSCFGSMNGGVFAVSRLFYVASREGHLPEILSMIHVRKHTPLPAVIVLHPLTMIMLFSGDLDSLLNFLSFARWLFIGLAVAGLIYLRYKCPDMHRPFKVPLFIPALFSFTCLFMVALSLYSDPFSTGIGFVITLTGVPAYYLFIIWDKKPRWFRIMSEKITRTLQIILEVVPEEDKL
T1 sequence (P08195 1-529 partner): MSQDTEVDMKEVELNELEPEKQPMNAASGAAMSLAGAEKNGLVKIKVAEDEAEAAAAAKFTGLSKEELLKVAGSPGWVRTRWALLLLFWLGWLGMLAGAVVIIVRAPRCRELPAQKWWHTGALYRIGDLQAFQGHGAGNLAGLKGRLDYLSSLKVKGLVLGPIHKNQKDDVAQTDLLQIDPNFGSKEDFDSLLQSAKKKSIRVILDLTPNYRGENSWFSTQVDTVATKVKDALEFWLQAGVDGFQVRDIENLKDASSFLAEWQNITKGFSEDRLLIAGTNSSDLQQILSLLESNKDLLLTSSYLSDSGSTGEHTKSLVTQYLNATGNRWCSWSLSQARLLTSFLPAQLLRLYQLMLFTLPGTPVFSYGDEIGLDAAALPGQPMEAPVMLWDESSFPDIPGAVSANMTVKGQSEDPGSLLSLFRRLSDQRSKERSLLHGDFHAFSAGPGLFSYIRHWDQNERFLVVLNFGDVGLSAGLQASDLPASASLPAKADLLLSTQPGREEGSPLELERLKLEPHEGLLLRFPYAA
Experimental: For determination of the responsible uptake mechanism, NCI-H460 tumor cells were co-incubated with the F-18 labeled tracer and several cold derivatives. These derivatives were used at a concentration of 1 mM, which is a large excess compared to the tracer. L-Glutamic acid, L-cystine, Carboxyphenylglycine (CPG) were used as competitors. In addition, also D-Glutamic acid, as well as L-aspartic acid and D-aspartic acid were used in this competition experiments. […] The same experiments were performed using [^18F]-1, [^18F]-4, [^18F]-9, [^18F]-8, [^18F]-25 and [^18F]-22.

NCI-H460 tumor [2] = experiment: PET imaging in NCI-H460 tumor bearing nude-mice; assay type: in vivo; conditions: PET at 60 min p.i., approx. 10 MBq
Experimental: a) [^18F]-1 was examined in NCI-H460 tumor bearing nude-mice using PET-imaging. Approx. 10 MBq of the tracer was injected into the animals and PET images were acquired at 60 min p.i. for 10 minutes. The H460-tumor was very well visible in the images with 3.6% ID/g as was determined by region of interest (ROI) analysis. Except of some uptake into the bladder due to the renal excretion, no uptake into non target tissues was observed.
b) [^18F]-12 was examined in the same animal model in mice as described above. Approx. 10 MBq was injected into the animals and PET images were obtained at 60 min p.i. for 10 min. The NCI-H460 tumor was very well visible and uptake of 2.7% ID/g into the tumor was calculated by ROI analysis. Except of some uptake into the gallbladder due to a partial hepatobiliary clearance of this derivative, the majority of activity is excreted renally, resulting in a strong PET signal from the bladder. No uptake in other non-target tissues was observed.

NCI-H460 tumor [3] = experiment: PET imaging in NCI-H460 tumor bearing nude-rats; assay type: in vivo
How it was run: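 NCI-H460 cells were inoculated into the right flank of nude rats (RH-Foxn1 nu/nu) 8 to 10 days before imaging. PET images were acquired for 10 minutes at 60 min after injection of approximately 10 MBq tracer. Tumor, liver and kidney activity was derived by ROI analysis as %ID/g.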

competition profile / uptake mechanism of the tracer (xCT (SLC7A11)): specific uptake
H460 tumor uptake by ROI analysis (NCI-H460 tumor [2]): 2.7 % ID/g
Kidney (% ID/g at 1 h p.i.) (NCI-H460 tumor [3]; PET ROI analysis, 1 h p.i.): 0.9 % ID/g
Liver (% ID/g at 1 h p.i.) (NCI-H460 tumor [3]; PET ROI analysis, 1 h p.i.): 0.8 % ID/g
Tumor (Max % ID/g at 1 h p.i.) (NCI-H460 tumor [3]; PET ROI analysis, 1 h p.i.): 2.2 % ID/g
Tumor (Mean % ID/g at 1 h p.i.) (NCI-H460 tumor [3]; PET ROI analysis, 1 h p.i.): 0.9 % ID/g
H460 tumor uptake by ROI analysis (NCI-H460 tumor [3]; PET at 60 min after injection, approx. 10 MBq): 0.9 % ID/g
SMILES: N[C@@H](CCC(Cc1ccc(OCC[18F])cc1)C(=O)O)C(=O)O (stereo partly drawn) [[^18F]-12] [(2S)-2-Amino-5-[4-(2-[^18F]fluoroethoxy)benzyl]hexanedioic acid]
30 min uptake into H460 cells [%/100.000 cells] [1]: 10.5 ± 0.3 %/100.000 cells
